# Measurements: ChEMBL document CHEMBL4814045, “Discovery of novel Staphylococcus aureus penicillin binding protein 2a inhibitors by multistep virtual screening and biological evaluation” (Bioorg Med Chem Lett, 2021)
# Legend:
# Staphylococcus aureus [1] = experiment: Bactericidal activity against methicillin-resistant Staphylococcus aureus 05 clinical isolate by broth dilution assay; type: functional
# Staphylococcus aureus [2] = experiment: Bactericidal activity against methicillin-resistant Staphylococcus aureus 07 clinical isolate by broth dilution assay; type: functional
# Staphylococcus aureus [3] = experiment: Bactericidal activity against methicillin-resistant Staphylococcus aureus 11 clinical isolate by broth dilution assay; type: functional
# Staphylococcus aureus [4] = experiment: Antibacterial activity against methicillin-resistant Staphylococcus aureus 12 clinical isolate by broth dilution assay; type: functional
# Staphylococcus aureus [5] = experiment: Bactericidal activity against methicillin-resistant Staphylococcus aureus 01 clinical isolate by broth dilution assay; type: functional
# Staphylococcus aureus [6] = experiment: Antibacterial activity against methicillin-resistant Staphylococcus aureus 11 clinical isolate by broth dilution assay; type: functional
# Staphylococcus aureus [7] = experiment: Bactericidal activity against methicillin-resistant Staphylococcus aureus 03 clinical isolate by broth dilution assay; type: functional
# Staphylococcus aureus [8] = experiment: Bactericidal activity against methicillin-resistant Staphylococcus aureus 08 clinical isolate by broth dilution assay; type: functional
# L02 = experiment: Cytotoxicity against human LO2 cells; type: cell-based
# Staphylococcus aureus [9] = experiment: Bactericidal activity against methicillin-resistant Staphylococcus aureus 12 clinical isolate by broth dilution assay; type: functional
# Staphylococcus aureus [10] = experiment: Bactericidal activity against methicillin-resistant Staphylococcus aureus 13 clinical isolate by broth dilution assay; type: functional
# Staphylococcus aureus [11] = experiment: Bactericidal activity against methicillin-resistant Staphylococcus aureus 02 clinical isolate by broth dilution assay; type: functional
# Staphylococcus aureus [12] = experiment: Antibacterial activity against methicillin-resistant Staphylococcus aureus 08 clinical isolate by broth dilution assay; type: functional
# Staphylococcus aureus [13] = experiment: Bactericidal activity against methicillin-resistant Staphylococcus aureus 06 clinical isolate by broth dilution assay; type: functional
# Staphylococcus aureus [14] = experiment: Bactericidal activity against methicillin-resistant Staphylococcus aureus 09 clinical isolate by broth dilution assay; type: functional
# Staphylococcus aureus [15] = experiment: Bactericidal activity against methicillin-resistant Staphylococcus aureus 04 clinical isolate by broth dilution assay; type: functional
# Staphylococcus aureus [16] = experiment: Antibacterial activity against methicillin-resistant Staphylococcus aureus 03 clinical isolate by broth dilution assay; type: functional
# Staphylococcus aureus [17] = experiment: Bactericidal activity against methicillin-resistant Staphylococcus aureus 10 clinical isolate by broth dilution assay; type: functional
# Staphylococcus aureus [18] = experiment: Antibacterial activity against Staphylococcus aureus […]; type: functional
# Staphylococcus aureus [19] = experiment: Antibacterial activity against methicillin-resistant Staphylococcus aureus ATCC 33591; type: functional
# MecA = target: T1, MecA (Staphylococcus aureus, UniProt Q7DHH4); experiment: Binding affinity to Staphylococcus aureus PBP2a assessed as equilibrium dissociation constant by SPR assay
# T1 sequence (Q7DHH4 whole entry): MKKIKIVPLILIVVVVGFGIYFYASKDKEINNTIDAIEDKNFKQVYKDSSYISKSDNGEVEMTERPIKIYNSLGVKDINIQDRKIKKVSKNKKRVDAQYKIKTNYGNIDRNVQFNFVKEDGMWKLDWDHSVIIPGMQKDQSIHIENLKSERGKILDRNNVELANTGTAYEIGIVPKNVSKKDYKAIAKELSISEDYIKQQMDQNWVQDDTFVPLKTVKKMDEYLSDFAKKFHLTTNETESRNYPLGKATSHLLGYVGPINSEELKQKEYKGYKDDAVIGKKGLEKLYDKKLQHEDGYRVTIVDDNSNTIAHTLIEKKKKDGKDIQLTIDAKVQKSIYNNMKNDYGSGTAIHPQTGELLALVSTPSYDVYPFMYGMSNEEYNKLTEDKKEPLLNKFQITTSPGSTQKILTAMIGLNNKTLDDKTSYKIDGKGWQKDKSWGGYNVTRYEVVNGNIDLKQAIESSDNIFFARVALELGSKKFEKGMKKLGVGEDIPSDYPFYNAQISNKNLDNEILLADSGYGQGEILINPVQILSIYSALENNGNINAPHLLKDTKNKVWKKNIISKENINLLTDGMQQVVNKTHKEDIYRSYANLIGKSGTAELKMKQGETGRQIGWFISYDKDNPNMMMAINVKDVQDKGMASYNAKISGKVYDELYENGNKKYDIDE
# [20] = target: T2, MecA (Staphylococcus aureus) (UniProt Q7DHH4); experiment: Binding affinity to Staphylococcus aureus PBP2a assessed as association constant by SPR assay
# T2 sequence (whole entry): T1 sequence (Q7DHH4 whole entry)
# Staphylococcus aureus [21] = experiment: Antibacterial activity against methicillin-resistant Staphylococcus aureus 06 clinical isolate by broth dilution assay; type: functional
# Staphylococcus aureus [22] = experiment: Antibacterial activity against methicillin-resistant Staphylococcus aureus 13 clinical isolate by broth dilution assay; type: functional
# Staphylococcus aureus [23] = experiment: Antibacterial activity against methicillin-resistant Staphylococcus aureus 05 clinical isolate by broth dilution assay; type: functional
# Staphylococcus aureus [24] = experiment: Antibacterial activity against methicillin-resistant Staphylococcus aureus 04 clinical isolate by broth dilution assay; type: functional
# Staphylococcus aureus [25] = experiment: Antibacterial activity against methicillin-resistant Staphylococcus aureus 01 clinical isolate by broth dilution assay; type: functional
# Staphylococcus aureus [26] = experiment: Antibacterial activity against methicillin-resistant Staphylococcus aureus 02 clinical isolate by broth dilution assay; type: functional
# Staphylococcus aureus [27] = experiment: Antibacterial activity against methicillin-resistant Staphylococcus aureus 07 clinical isolate by broth dilution assay; type: functional
# Staphylococcus aureus [28] = experiment: Antibacterial activity against methicillin-resistant Staphylococcus aureus 10 clinical isolate by broth dilution assay; type: functional
# Staphylococcus aureus [29] = experiment: Antibacterial activity against methicillin-resistant Staphylococcus aureus 09 clinical isolate by broth dilution assay; type: functional
smiles,measurement,setting,value
CN[C@H](CC(C)C)C(=O)N[C@H]1C(=O)N[C@@H](CC(N)=O)C(=O)N[C@H]2C(=O)N[C@H]3C(=O)N[C@H](C(=O)N[C@H](C(=O)O)c4cc(O)cc(O)c4-c4cc3ccc4O)[C@H](O)c3ccc(c(Cl)c3)Oc3cc2cc(c3O[C@@H]2O[C@H](CO)[C@@H](O)[C@H](O)[C@H]2O[C@H]2C[C@](C)(N)[C@H](O)[C@H](C)O2)Oc2ccc(cc2Cl)[C@H]1O [VANCOMYCIN],MBC,Staphylococcus aureus [1],64 µg/mL
same,MBC,Staphylococcus aureus [2],32 µg/mL
same,MBC,Staphylococcus aureus [3],64 µg/mL
same,MIC,Staphylococcus aureus [4],8 µg/mL
same,MBC,Staphylococcus aureus [5],32 µg/mL
same,MIC,Staphylococcus aureus [6],16 µg/mL
same,MBC,Staphylococcus aureus [7],128 µg/mL
same,MBC,Staphylococcus aureus [8],64 µg/mL
same,IC50,L02,> 20 µM
same,MBC,Staphylococcus aureus [9],128 µg/mL
same,MBC,Staphylococcus aureus [10],64 µg/mL
same,MBC,Staphylococcus aureus [11],64 µg/mL
same,MIC,Staphylococcus aureus [12],8 µg/mL
same,MBC,Staphylococcus aureus [13],8 µg/mL
same,MBC,Staphylococcus aureus [14],32 µg/mL
same,MBC,Staphylococcus aureus [15],128 µg/mL
same,MIC,Staphylococcus aureus [16],8 µg/mL
same,MBC,Staphylococcus aureus [17],128 µg/mL
CC[C@H](C)[C@@H](CC(=O)CNC(=O)CCc1c(C)c2cc3oc(C)c(-c4ccccc4)c3c(C)c2oc1=O)C(=O)O,MIC,Staphylococcus aureus [18],32 µg/mL
same,MIC,Staphylococcus aureus [19],64 µg/mL
same,IC50,L02,> 20 µM
CC(=O)Nc1ccc(NC(=O)COc2cc3c(c4oc(=O)c(C)c(C)c24)CCC(C)(C)O3)cc1,MIC,Staphylococcus aureus [18],32 µg/mL
same,MIC,Staphylococcus aureus [19],64 µg/mL
same,IC50,L02,> 20 µM
COc1ccc(CCNC(=O)COc2ccc3c(c2)OC2(CCN(C(C)=O)CC2)CC3=O)cc1OC,MIC,Staphylococcus aureus [18],16 µg/mL
same,MIC,Staphylococcus aureus [19],64 µg/mL
same,IC50,L02,7.8 µM
COc1cc2c(c(OC)c1OC)-c1ccc(NCC(=O)NCCc3c[nH]c4ccccc34)c(=O)cc1[C@@H](NC(C)=O)CC2,Kd,MecA,0.168 µM
same,MIC,Staphylococcus aureus [18],2 µg/mL
same,MIC,Staphylococcus aureus [19],4 µg/mL
same,IC50,L02,> 20 µM
same,Ka,[20],3.48 10^5/M/s
COc1cccc(/C=C2\Oc3cc(OCC(=O)N[C@@H](Cc4c[nH]c5ccccc45)C(=O)O)ccc3C2=O)c1,MIC,Staphylococcus aureus [18],4 µg/mL
same,MIC,Staphylococcus aureus [19],8 µg/mL
same,IC50,L02,> 20 µM
C[C@]12CCC(=O)C=C1CC[C@@H]1[C@H]2CC[C@@]2(C)[C@H]1CC[C@]2(O)C(=O)COC(=O)CCC(=O)N[C@H]1CCCCNC1=O,MIC,Staphylococcus aureus [18],4 µg/mL
same,MIC,Staphylococcus aureus [19],4 µg/mL
same,IC50,L02,16.9 µM
COc1ccc(CNC(=O)[C@@H](C)Oc2ccc3c(c2)c2cncc4c5cc(OC)c(OC)cc5c(=O)n3c42)c(OC)c1,MIC,Staphylococcus aureus [18],64 µg/mL
same,MIC,Staphylococcus aureus [19],128 µg/mL
same,IC50,L02,6.4 µM
Cc1ccc(NC(=O)[C@H](Cc2c[nH]c3ccccc23)NC(=O)C2CCN(C(=O)CNC(=O)OC(C)(C)C)CC2)cc1,Kd,MecA,0.129 µM
same,MBC,Staphylococcus aureus [1],8 µg/mL
same,MIC,Staphylococcus aureus [18],2 µg/mL
same,MIC,Staphylococcus aureus [21],4 µg/mL
same,MIC,Staphylococcus aureus [19],2 µg/mL
same,MBC,Staphylococcus aureus [2],64 µg/mL
same,MIC,Staphylococcus aureus [22],16 µg/mL
same,MBC,Staphylococcus aureus [3],128 µg/mL
same,MIC,Staphylococcus aureus [23],1 µg/mL
same,MIC,Staphylococcus aureus [24],4 µg/mL
same,MIC,Staphylococcus aureus [25],2 µg/mL
same,MIC,Staphylococcus aureus [26],4 µg/mL
same,MIC,Staphylococcus aureus [27],4 µg/mL
same,MIC,Staphylococcus aureus [4],8 µg/mL
same,MBC,Staphylococcus aureus [5],32 µg/mL
same,MIC,Staphylococcus aureus [6],2 µg/mL
same,MIC,Staphylococcus aureus [28],4 µg/mL
same,MBC,Staphylococcus aureus [7],128 µg/mL
same,MIC,Staphylococcus aureus [29],16 µg/mL
same,MBC,Staphylococcus aureus [8],32 µg/mL
same,IC50,L02,> 20 µM
same,MBC,Staphylococcus aureus [9],256 µg/mL
same,MBC,Staphylococcus aureus [10],128 µg/mL
same,MBC,Staphylococcus aureus [11],64 µg/mL
same,MIC,Staphylococcus aureus [12],0.5 µg/mL
same,MBC,Staphylococcus aureus [13],64 µg/mL
same,MBC,Staphylococcus aureus [14],64 µg/mL
same,MBC,Staphylococcus aureus [15],64 µg/mL
same,Ka,[20],3.28 10^5/M/s
same,MIC,Staphylococcus aureus [16],8 µg/mL
same,MBC,Staphylococcus aureus [17],64 µg/mL
COc1ccc(NC(=O)[C@H]2Oc3c(c(=O)oc4ccccc34)[C@@H]2c2ccc(CCCN3CCCC3=O)cc2)cc1,Kd,MecA,86.6 µM
same,MIC,Staphylococcus aureus [18],128 µg/mL
same,MIC,Staphylococcus aureus [19],64 µg/mL
same,IC50,L02,> 20 µM
same,Ka,[20],2.46 10^4/M/s
O=C(C[C@@H]1NC(=O)c2ccccc2NC1=O)NCCc1c[nH]c2ccc(OCc3ccccc3)cc12,MIC,Staphylococcus aureus [18],64 µg/mL
same,MIC,Staphylococcus aureus [19],32 µg/mL
same,IC50,L02,> 20 µM
COc1ccc(-c2cc(=O)oc3c(C)c(OCC(=O)N[C@@H](Cc4c[nH]c5ccc(O)cc45)C(=O)O)ccc23)cc1,Kd,MecA,0.264 µM
same,MIC,Staphylococcus aureus [18],4 µg/mL
same,MIC,Staphylococcus aureus [19],4 µg/mL
same,IC50,L02,11.6 µM
same,Ka,[20],5.65 10^5/M/s
